Literature values in patent US20160184299A1, “COMBINATION COMPOSITION COMPRISING OXYCODONE AND ACETAMINOPHEN FOR RAPID ONSET AND EXTENDED DURATION OF ANALGESIA” (MALLINCKRODT LLC, priority 2011, published 2016).

System: hepatic GSH
Conditions: mice, cited from earlier work

In the case of `CC(=O)Nc1ccc(O)cc1` [acetaminophen], the “Time to onset of circulating hepatic GSH changes after administration” value (100 mg/kg to 600 mg/kg) is listed as at most 15 min and the “Time of minimum GSH level after injection” value (all dose groups) is listed as 2 h.
